Experiments:
Solubility in acetone = format: physicochemical; set-up: key: ∘: completely dissolved; x: not completely dissolved
Experimental: (§1) Compounds represented by the compound Nos. 1-1, 1-2, 1-3, 1-4 and 1-7 (Table 1-1) were synthesized in the same manner as in Examples 1-1 and 1-2. With respect to compounds synthesized in Example 1-2 and Synthesis Example 1-1 along with these compounds, the maximum absorption wavelength (λmax), the gram absorption coefficient (εg) and solubility were measured.
(§2) λmax and εg are values in the chloroform solution, while the solubility is weight % based on acetone.

[1] = Absorption spectrum in chloroform (maximum absorption wavelength, gram absorption coefficient, 550/525 nm coefficient ratio); format: physicochemical; conditions: for Maximum Absorption Wavelength / gram absorption coefficient: in chloroform
Experimental: as §1, §2
With respect to the compounds represented by the compound Nos. 1-2, 1-3, 1-6 and 1-7 synthesized in Examples 1-2 and 1-3 (corresponding to compounds (3-B), (3-C), (3-E) and (3-F) respectively) along with the obtained compound (3-A), the maximum absorption wavelength and the ratio of the absorption coefficient at a wavelength of 550 nm to the absorption coefficient at a wavelength of 525 nm, which were measured in a chloroform solvent, are shown in Table 3-1. [drawing 26] [drawing 27] [drawing 28] [drawing 29]

Solubility 0.1% (Solubility in acetone; 0.1 weight % based on acetone) | Solubility 0.2% (Solubility in acetone; 0.2 weight % based on acetone) | Solubility 1.0% (Solubility in acetone; 1.0 weight % based on acetone) | εg (gram absorption coefficient) ([1]; chloroform solution) | λmax ([1]; chloroform solution) | Maximum Absorption Wavelength [1] | gram absorption coefficient [1] | Compound
∘ | ∘ | x | 162,000 | 553 nm |  |  | CCCCOc1ccc(C2=c3nc(c4c5cccc6cccc(c3=4)c65)C(c3ccc(OCCCC)cc3)=c3c4c(c5[n]3[Cu][n]3c2c2c(c3C(c3ccc(OCCCC)cc3)=c3nc(c6c7cccc8cccc(c3=6)c87)C=5c3ccc(OCCCC)cc3)-c3cccc5cccc-2c35)-c2cccc3cccc-4c23)cc1 [1-1]
 |  |  |  |  | 567 nm | 113,000 | CCCCCCCCCCOc1ccc(-c2c3nc(c(-c4ccc(OCCCCCCCCCC)cc4)c4[nH]c(c(-c5ccc(OCCCCCCCCCC)cc5)c5nc(c(-c6ccc(OCCCCCCCCCC)cc6)c6[nH]c2c2c7cccc8cccc(c87)c62)c2c6cccc7cccc(c76)c52)c2c5cccc6cccc(c65)c42)c2c4cccc5cccc(c54)c32)cc1 [1-A]
 |  |  |  |  | 563 nm | 110,000 | c1coc(-c2c3nc(c(-c4ccco4)c4[nH]c(c(-c5ccco5)c5nc(c(-c6ccco6)c6[nH]c2c2c7cccc8cccc(c87)c62)c2c6cccc7cccc(c76)c52)c2c5cccc6cccc(c65)c42)c2c4cccc5cccc(c54)c32)c1 [2-A]
